# Data: article PMC5218480 (PLoS ONE, 2017)
# Test system: MV-4-11 cells
# Assay: Gene expression microarray analysis (Affymetrix PrimeView) and GSEA
# Assay type: cell-based, human
# Set-up: RFU PODN (11730768_x_at) / Fold change /veh PODN (11730768_x_at) / RFU LINC00158 (11744669_a_at) / Fold change /veh LINC00158 (11744669_a_at) / RFU DUSP10 (11751237_a_at) / Fold change /veh DUSP10 (11751237_a_at) / RFU ID3 (11757404_x_at) / Fold change /veh ID3 (11757404_x_at) / RFU PLEKHG5 (11737974_s_at) / Fold change /veh PLEKHG5 (11737974_s_at) / RFU LRRC4B (11730491_at) / Fold change /veh LRRC4B (11730491_at) / RFU GIMAP4 (11747438_a_at) / Fold change /veh GIMAP4 (11747438_a_at) / RFU KRT8 (11758183_x_at) / Fold change /veh KRT8 (11758183_x_at) / RFU CNN1 (11734310_a_at) / Fold change /veh CNN1 (11734310_a_at) / RFU VPS37D (11726825_at) / Fold change /veh VPS37D (11726825_at) / RFU C10orf10 (11716522_x_at) / Fold change /veh C10orf10 (11716522_x_at) / RFU KIR2DL2 /// KIR2DL4 /// KIR2DL5A /// KIR2DL5B /// KIR2DS1 /// KIR2DS2 /// KIR2DS3 /// KIR2DS4 /// KIR3DL3 /// KIR3DL3 /// KIR3DS1 (11738374_at) / Fold change /veh KIR2DL2 /// KIR2DL4 /// KIR2DL5A /// KIR2DL5B /// KIR2DS1 /// KIR2DS2 /// KIR2DS3 /// KIR2DS4 /// KIR3DL3 /// KIR3DL3 /// KIR3DS1 (11738374_at) / RFU C1QL1 (11718748_at) / Fold change /veh C1QL1 (11718748_at) / RFU TMPRSS4 (11747572_a_at) / Fold change /veh TMPRSS4 (11747572_a_at) / RFU HAMP (11756126_x_at) / Fold change /veh HAMP (11756126_x_at) / RFU RNFT2 (11725882_a_at) / Fold change /veh RNFT2 (11725882_a_at) / RFU NR4A2 (11747474_a_at) / Fold change /veh NR4A2 (11747474_a_at) / RFU ABCC12 (11746883_a_at) / Fold change /veh ABCC12 (11746883_a_at) / RFU TMEM136 (11760407_x_at) / Fold change /veh TMEM136 (11760407_x_at) / RFU CLDN22 /// WWC2 (11732394_at) / Fold change /veh CLDN22 /// WWC2 (11732394_at) / RFU HLA-DPB1 (11760878_x_at) / Fold change /veh HLA-DPB1 (11760878_x_at) / RFU SPINT1 (11716480_a_at) / Fold change /veh SPINT1 (11716480_a_at) / RFU GAP43 (11754022_s_at) / Fold change /veh GAP43 (11754022_s_at) / RFU A4GNT (11735810_at) / Fold change /veh A4GNT (11735810_at) / RFU PRB3 (11715151_x_at) / Fold change /veh PRB3 (11715151_x_at) / RFU TUBB4B (11761932_at) / Fold change /veh TUBB4B (11761932_at) / RFU CAPN14 (11732068_a_at) / Fold change /veh CAPN14 (11732068_a_at) / RFU TMCC2 (11721928_a_at) / Fold change /veh TMCC2 (11721928_a_at) / RFU IRGQ (11745062_a_at) / Fold change /veh IRGQ (11745062_a_at) / RFU FAM174B (11720279_a_at) / Fold change /veh FAM174B (11720279_a_at) / RFU TMPRSS4 (11748680_a_at) / Fold change /veh TMPRSS4 (11748680_a_at) / RFU FAM212B (11763350_a_at) / Fold change /veh FAM212B (11763350_a_at) / RFU PLEKHG5 (11743358_a_at) / Fold change /veh PLEKHG5 (11743358_a_at) / RFU ZSCAN30 (11745921_a_at) / Fold change /veh ZSCAN30 (11745921_a_at) / RFU CMKLR1 (11741424_a_at) / Fold change /veh CMKLR1 (11741424_a_at) / RFU LOC101060620 /// MAPK8IP1 (11723275_at) / Fold change /veh LOC101060620 /// MAPK8IP1 (11723275_at) / RFU SPTSSB (11747773_x_at) / Fold change /veh SPTSSB (11747773_x_at) / RFU PRSS12 (11739890_at) / Fold change /veh PRSS12 (11739890_at) / RFU BIN1 (11741810_x_at) / Fold change /veh BIN1 (11741810_x_at) / RFU WNT11 (11732464_a_at) / Fold change /veh WNT11 (11732464_a_at) / RFU C10orf10 (11716521_a_at) / Fold change /veh C10orf10 (11716521_a_at) / RFU C5orf56 (11738089_at) / Fold change /veh C5orf56 (11738089_at) / RFU CYB561 (11721691_x_at) / Fold change /veh CYB561 (11721691_x_at) / RFU ANKRD19P (11752326_a_at) / Fold change /veh ANKRD19P (11752326_a_at) / RFU OR2T12 /// OR2T33 /// OR2T8 (11738714_s_at) / Fold change /veh OR2T12 /// OR2T33 /// OR2T8 (11738714_s_at) / RFU VCAN (11748164_a_at) / Fold change /veh VCAN (11748164_a_at) / RFU JSRP1 (11732532_at) / Fold change /veh JSRP1 (11732532_at) / RFU KRTAP10-11 (11738290_x_at) / Fold change /veh KRTAP10-11 (11738290_x_at) / RFU MYO3A (11730013_a_at) / Fold change /veh MYO3A (11730013_a_at) / RFU EBF3 (11725865_a_at) / Fold change /veh EBF3 (11725865_a_at) / RFU CAMK2N1 (11719241_x_at) / Fold change /veh CAMK2N1 (11719241_x_at) / RFU C5orf56 (11738088_a_at) / Fold change /veh C5orf56 (11738088_a_at) / RFU OLFML3 (11715873_a_at) / Fold change /veh OLFML3 (11715873_a_at) / RFU LOC100653217 /// NTM (11731650_a_at) / Fold change /veh LOC100653217 /// NTM (11731650_a_at) / RFU MAPK11 (11762145_a_at) / Fold change /veh MAPK11 (11762145_a_at) / RFU FIZ1 (11724087_x_at) / Fold change /veh FIZ1 (11724087_x_at) / RFU OASL (11726364_x_at) / Fold change /veh OASL (11726364_x_at) / RFU SOX15 (11748057_x_at) / Fold change /veh SOX15 (11748057_x_at) / RFU CD79A (11719716_a_at) / Fold change /veh CD79A (11719716_a_at) / RFU HIST1H1D (11736915_at) / Fold change /veh HIST1H1D (11736915_at) / RFU CASKIN2 (11723855_a_at) / Fold change /veh CASKIN2 (11723855_a_at) / RFU LOC730098 (11760151_x_at) / Fold change /veh LOC730098 (11760151_x_at) / RFU OR4N2 (11742367_at) / Fold change /veh OR4N2 (11742367_at) / RFU PRRT2 (11749266_a_at) / Fold change /veh PRRT2 (11749266_a_at) / RFU SNX32 (11753110_a_at) / Fold change /veh SNX32 (11753110_a_at) / RFU CDHR5 (11726645_a_at) / Fold change /veh CDHR5 (11726645_a_at) / RFU RCAN1 (11760418_a_at) / Fold change /veh RCAN1 (11760418_a_at) / RFU FAM167A (11723789_a_at) / Fold change /veh FAM167A (11723789_a_at) / RFU FAM26E (11764081_at) / Fold change /veh FAM26E (11764081_at) / RFU ISYNA1 (11749810_s_at) / Fold change /veh ISYNA1 (11749810_s_at) / RFU ACY1 (11761880_at) / Fold change /veh ACY1 (11761880_at) / RFU 11764098_at / Fold change /veh 11764098_at / RFU SAMD14 (11745864_x_at) / Fold change /veh SAMD14 (11745864_x_at) / RFU NPB (11741838_a_at) / Fold change /veh NPB (11741838_a_at) / RFU TMPRSS6 (11731388_a_at) / Fold change /veh TMPRSS6 (11731388_a_at) / RFU KRTAP10-2 (11738614_at) / Fold change /veh KRTAP10-2 (11738614_at) / RFU ARHGAP8 /// PRR5-ARHGAP8 (11727945_x_at) / Fold change /veh ARHGAP8 /// PRR5-ARHGAP8 (11727945_x_at) / RFU KRTAP5-7 /// NADSYN1 (11734609_at) / Fold change /veh KRTAP5-7 /// NADSYN1 (11734609_at) / RFU RASL12 (11751679_a_at) / Fold change /veh RASL12 (11751679_a_at) / RFU CDKN2B (11736163_a_at) / Fold change /veh CDKN2B (11736163_a_at) / RFU PRF1 (11729649_at) / Fold change /veh PRF1 (11729649_at) / RFU, ZNF638 /// ZNF638-IT1 / Fold change vs veh, ZNF638 /// ZNF638-IT1 / RFU, PANK3 / Fold change vs veh, PANK3 / RFU, SH3YL1 / Fold change vs veh, SH3YL1 / RFU, ZEB2 / Fold change vs veh, ZEB2 / RFU, NRIP1 / Fold change vs veh, NRIP1 / RFU, PTTG1IP / Fold change vs veh, PTTG1IP / RFU, CAPN2 / Fold change vs veh, CAPN2 / RFU, MED14 / Fold change vs veh, MED14 / RFU, SNORA58 / Fold change vs veh, SNORA58 / RFU, C1orf63 / Fold change vs veh, C1orf63 / RFU, LRRFIP1 / Fold change vs veh, LRRFIP1 / RFU, NDUFAF7 / Fold change vs veh, NDUFAF7 / RFU, SLC12A2 / Fold change vs veh, SLC12A2 / RFU, IBTK / Fold change vs veh, IBTK / RFU, ESF1 / Fold change vs veh, ESF1 / Fold change vs veh, TMEM50B / RFU, TAOK1 / Fold change vs veh, TAOK1 / RFU, ACBD3 / Fold change vs veh, ACBD3 / RFU, TMA16 / Fold change vs veh, TMA16 / RFU, RWDD3 / Fold change vs veh, RWDD3 / RFU, BCAT1 / Fold change vs veh, BCAT1 / RFU, EDEM3 / Fold change vs veh, EDEM3 / RFU, TMEM33 / Fold change vs veh, TMEM33 / RFU, WDR75 / Fold change vs veh, WDR75 / RFU, AHCTF1 / Fold change vs veh, AHCTF1 / RFU, TFRC / Fold change vs veh, TFRC / RFU, ZDHHC17 / Fold change vs veh, ZDHHC17 / RFU, NOM1 / Fold change vs veh, NOM1 / RFU, ARL8B / Fold change vs veh, ARL8B / RFU, ZBTB11 / Fold change vs veh, ZBTB11 / RFU, TAMM41 / Fold change vs veh, TAMM41 / RFU, KIAA1704 /// LOC100996395 / Fold change vs veh, KIAA1704 /// LOC100996395 / RFU, ING1 / Fold change vs veh, ING1 / RFU, TRMT61B / Fold change vs veh, TRMT61B / RFU, FUBP3 / Fold change vs veh, FUBP3 / RFU, TP53 / Fold change vs veh, TP53 / RFU, TNKS2 / Fold change vs veh, TNKS2 / RFU, ZFP14 / Fold change vs veh, ZFP14 / RFU, ACTR2 / Fold change vs veh, ACTR2 / RFU, PPP3R1 / Fold change vs veh, PPP3R1 / RFU, PIK3R1 / Fold change vs veh, PIK3R1 / RFU, HNRNPA1 / Fold change vs veh, HNRNPA1 / RFU, RNF170 / Fold change vs veh, RNF170 / RFU, ZNF28 / Fold change vs veh, ZNF28 / RFU, RNGTT / Fold change vs veh, RNGTT / RFU, OGT / Fold change vs veh, OGT / RFU, BRD1 / Fold change vs veh, BRD1 / RFU, MARS / Fold change vs veh, MARS / RFU, ZNF655 / Fold change vs veh, ZNF655 / RFU, FAHD1 / Fold change vs veh, FAHD1 / RFU, BDP1 / Fold change vs veh, BDP1 / RFU, LRRCC1 / Fold change vs veh, LRRCC1 / RFU, ARID1A / Fold change vs veh, ARID1A / RFU, ZNF146 / Fold change vs veh, ZNF146 / RFU, ZNF330 / Fold change vs veh, ZNF330 / RFU, GPN3 / Fold change vs veh, GPN3 / RFU, C9orf123 / Fold change vs veh, C9orf123 / RFU, N4BP2L2 / Fold change vs veh, N4BP2L2 / RFU, ARFIP1 / Fold change vs veh, ARFIP1 / RFU, FAM179B / Fold change vs veh, FAM179B / RFU, BCL10 / Fold change vs veh, BCL10 / RFU, UHRF1BP1L / Fold change vs veh, UHRF1BP1L / RFU, BET1 / Fold change vs veh, BET1 / RFU, CNOT2 / Fold change vs veh, CNOT2 / RFU, ZNF268 / Fold change vs veh, ZNF268 / Fold change vs veh, ZNF507 / RFU, DGCR2 / Fold change vs veh, DGCR2 / RFU, WDSUB1 / Fold change vs veh, WDSUB1 / Fold change vs veh, HSP90B1 /// MIR3652 / RFU, ADSS / Fold change vs veh, ADSS / RFU, GK / Fold change vs veh, GK / RFU, ZNF148 / Fold change vs veh, ZNF148 / RFU, TAF9 / Fold change vs veh, TAF9 / RFU, SLC1A5 / Fold change vs veh, SLC1A5 / RFU, SLMO2 / Fold change vs veh, SLMO2 / RFU, ABCC4 / Fold change vs veh, ABCC4 / RFU, LOC101060439 /// RAP1B / Fold change vs veh, LOC101060439 /// RAP1B / RFU, RFX7 / Fold change vs veh, RFX7 / RFU, GTPBP10 / Fold change vs veh, GTPBP10 / RFU, CNEP1R1 / Fold change vs veh, CNEP1R1 / RFU, BIVM-ERCC5 /// ERCC5 / Fold change vs veh, BIVM-ERCC5 /// ERCC5 / RFU, ILF3 / Fold change vs veh, ILF3 / RFU 11762660_at / Fold change /veh 11762660_at / RFU VCAN (11757783_s_at) / Fold change /veh VCAN (11757783_s_at) / RFU DDX43 (11728927_at) / Fold change /veh DDX43 (11728927_at) / RFU KRT8 (11758188_x_at) / Fold change /veh KRT8 (11758188_x_at) / RFU NKD1 (11759106_at) / Fold change /veh NKD1 (11759106_at) / RFU SRD5A1 (11742802_a_at) / Fold change /veh SRD5A1 (11742802_a_at) / RFU TPSAB1 /// TPSB2 (11721975_s_at) / Fold change /veh TPSAB1 /// TPSB2 (11721975_s_at) / RFU GSTM3 (11746129_a_at) / Fold change /veh GSTM3 (11746129_a_at) / RFU IL23R (11737362_x_at) / Fold change /veh IL23R (11737362_x_at) / RFU TMEM51 (11727254_a_at) / Fold change /veh TMEM51 (11727254_a_at) / RFU PIWIL2 (11732686_x_at) / Fold change /veh PIWIL2 (11732686_x_at) / RFU ORM1 (11744905_x_at) / Fold change /veh ORM1 (11744905_x_at) / RFU CCDC152 (11743942_at) / Fold change /veh CCDC152 (11743942_at) / RFU ECM1 (11717891_a_at) / Fold change /veh ECM1 (11717891_a_at) / RFU IL23R (11748794_a_at) / Fold change /veh IL23R (11748794_a_at) / RFU TNFAIP8L3 (11732012_x_at) / Fold change /veh TNFAIP8L3 (11732012_x_at) / RFU MBOAT4 (11741988_at) / Fold change /veh MBOAT4 (11741988_at) / RFU 11764193_at / Fold change /veh 11764193_at / RFU TMEM53 (11763286_at) / Fold change /veh TMEM53 (11763286_at) / RFU MAGEB2 (11727129_at) / Fold change /veh MAGEB2 (11727129_at) / RFU TMEM200A (11744735_a_at) / Fold change /veh TMEM200A (11744735_a_at) / RFU CCDC152 (11751479_a_at) / Fold change /veh CCDC152 (11751479_a_at) / RFU FAM211A (11726209_a_at) / Fold change /veh FAM211A (11726209_a_at) / RFU RGS16 (11746705_a_at) / Fold change /veh RGS16 (11746705_a_at) / RFU VCAN (11755009_s_at) / Fold change /veh VCAN (11755009_s_at) / RFU RHOB (11743442_s_at) / Fold change /veh RHOB (11743442_s_at) / RFU RGS16 (11720943_a_at) / Fold change /veh RGS16 (11720943_a_at) / RFU RGS16 (11720944_at) / Fold change /veh RGS16 (11720944_at) / RFU, VPS4B / Fold change vs veh, VPS4B / RFU, CREB1 / Fold change vs veh, CREB1 / RFU, DNAJC13 / Fold change vs veh, DNAJC13 / RFU, GNAQ / Fold change vs veh, GNAQ / RFU, CDK5R1 / Fold change vs veh, CDK5R1 / RFU, ZRANB3 / Fold change vs veh, ZRANB3 / RFU, CUL4A / Fold change vs veh, CUL4A / RFU, CCNY / Fold change vs veh, CCNY / RFU, UFL1 / Fold change vs veh, UFL1 / RFU, COG3 / Fold change vs veh, COG3 / RFU, DIAPH2 / Fold change vs veh, DIAPH2 / RFU, SKA2 / Fold change vs veh, SKA2 / RFU, AFF3 / Fold change vs veh, AFF3 / RFU, LMF1 / Fold change vs veh, LMF1 / RFU, IPO11 / Fold change vs veh, IPO11 / RFU, DFFB / Fold change vs veh, DFFB / RFU, FOXP1 / Fold change vs veh, FOXP1 / RFU, CARD8 / Fold change vs veh, CARD8 / RFU, STRN3 / Fold change vs veh, STRN3 / RFU, ADK / Fold change vs veh, ADK / RFU, RASSF2 / Fold change vs veh, RASSF2 / RFU, WIPF1 / Fold change vs veh, WIPF1 / RFU, LARP1B / Fold change vs veh, LARP1B / RFU, RASA1 / Fold change vs veh, RASA1 / RFU, RB1 / Fold change vs veh, RB1 / RFU, PPFIA1 / Fold change vs veh, PPFIA1 / RFU, MAT2A / Fold change vs veh, MAT2A / RFU, CCT5 / Fold change vs veh, CCT5 / RFU, WDR92 / Fold change vs veh, WDR92 / RFU, CUX1 / Fold change vs veh, CUX1 / RFU, TTC7A / Fold change vs veh, TTC7A / RFU, TMEM135 / Fold change vs veh, TMEM135 / RFU, DEPTOR / Fold change vs veh, DEPTOR / RFU, CPM / Fold change vs veh, CPM / RFU, DNAJB6 / Fold change vs veh, DNAJB6 / RFU, CACNA2D3 / Fold change vs veh, CACNA2D3 / RFU, DTX4 / Fold change vs veh, DTX4 / RFU, TFCP2 / Fold change vs veh, TFCP2 / RFU, GMCL1 /// GMCL1P1 / Fold change vs veh, GMCL1 /// GMCL1P1 / RFU, AEBP2 / Fold change vs veh, AEBP2 / RFU, SNHG1 /// SNORD22 /// SNORD25 /// SNORD26 /// SNORD27 /// SNORD28 /// SNORD29 /// SNORD31 / Fold change vs veh, SNHG1 /// SNORD22 /// SNORD25 /// SNORD26 /// SNORD27 /// SNORD28 /// SNORD29 /// SNORD31 / Fold change (Aza/veh), C12orf56 (ProbeSet 11735607_a_at) / Fold change (ACY-1035/veh), C12orf56 (ProbeSet 11735607_a_at) / Fold change (Aza/veh), FGFR1OP (ProbeSet 11751329_s_at) / Fold change (ACY-1035/veh), FGFR1OP (ProbeSet 11751329_s_at) / Fold change (Aza/veh), VPS36 (ProbeSet 11739960_a_at) / Fold change (ACY-1035/veh), VPS36 (ProbeSet 11739960_a_at) / RFU SYPL1 (11715823_x_at) / Fold change /veh SYPL1 (11715823_x_at) / RFU IGFBP7 (11715501_s_at) / Fold change /veh IGFBP7 (11715501_s_at) / RFU REEP3 (11722064_at) / Fold change /veh REEP3 (11722064_at) / RFU IGLL1 (11728026_x_at) / Fold change /veh IGLL1 (11728026_x_at): dose or concentration left out as unconfirmed
# Settings: MV-4-11 cells, 48 hours
smiles,measurement,value
Nc1ncn([C@@H]2O[C@H](CO)[C@@H](O)[C@H]2O)c(=O)n1 [azacitidine],Fold change /veh TMEM51 (11727254_a_at),1.21
